In experiment [1] the test system is A2780/cp70. The experiment can be described thus: Modified MTT assay, A2780/cp70 (cisplatin resistant, MMR deficient). The format is cell-based, human. The following applies: 24 hour drug exposure; for IC50: MTT; for A2780/cp70 RF (Resistance Factor): fold difference in resistance from parental A2780. The protocol:
(§1) Relative drug sensitivities (Resistance Factor) and IC50 values were determined by a modified MTT assay (see, e.g., Mosmann, 1983; Plumb et al., 1989), as described below: • (1) Trypsinise a sub-confluent monolayer culture and collect cells in growth medium containing serum. Centrifuge the suspension (200 g, 5 minutes) to pellet cells, re-suspend in growth medium, and count cells. Dilute cells to a density of 5×10^3 cells/mL allowing 60 mL of cell suspension for 3 microtitre plates. Transfer cell suspension to a 10 cm petri dish, and with a multichannel pipette add 200 μL to each well of the central 10 columns of a flat bottomed 96-well plate (80 wells per plate) starting with column 2 and ending with column 11. Add 200 μL of growth medium to the 8 wells in columns 1 and 12. Put the plates in a plastic box and incubate in a humidified atmosphere at 37° C. for 2-3 days so that cells are in the exponential phase of growth for drug addition. • (2) Prepare a serial 5-fold dilution of the cytotoxic drug in growth medium to give 8 concentrations. Pipette 6 mL of growth medium in to each of 7 universal containers (30 mL). Prepare 10 mL of the highest concentration of the drug and transfer 1.5 mL of this solution to the first universal container. Mix and then transfer 1.5 mL to the next universal container. Continue until the seventh universal container is reached. The concentrations should be chosen so that the highest concentration kills most of the cells and the lowest kills none of the cells. Normally, three plates are used for each drug to give triplicate determinations within one experiment. • (3) The medium is removed from all the wells in columns 2 to 11. This can be achieved with a hypodermic needle attached to a suction line. Cells in the 8 wells in columns 2 and 11 are fed with 200 μL of fresh growth medium. The drug solutions are transferred to 10 cm petri dishes and 200 μL added to all 8 wells of a column. For ease of analysis arrange the drug solutions in order so that the highest is in column 3 down to the lowest in column 10. Plates are returned to the plastic box and incubated for 24 hours. • (4) At the end of the drug exposure period, the medium is removed from all wells containing cells and the cells are fed with 200 μL of fresh medium. • (5) The plates are fed daily for two more days. • (6) The plates are fed with 200 μL of fresh medium and 50 μL of the MTT solution (5 mg/mL in PBS) is added to all wells in columns 1 to 11. Plates are wrapped in aluminium foil and incubated for 4 hours in a humidified atmosphere at 37° C. • (7) The medium and MTT are then removed from the wells and the purple MTT-formazan crystals dissolved by addition of 200 μL of DMSO to all wells in columns 1 to 11. Glycine buffer is added (25 μL per well) to all wells containing DMSO. • (8) Absorbance is recorded at 570 nm with the wells in column 1, which contained medium and MTT but no cells used as a blank. • (9) A graph is plotted of absorbance (y-axis) against drug concentration (x-axis). The mean absorbance reading from the wells in columns 2 and 11 is used as the control absorbance and the IC50 concentration is determined as the drug concentration required to reduce the absorbance to half that of the control. IC10 or IC90 values can be determined in the same manner.
A2780/cp70 and A2780/mcp1 have lost expression of MLH1, have lost MMR activity, and have microsatellite instability compared to A2780. The CpG island at the MLH1 gene is methylated in A2780/cp70 and A2780/mcp1, but not A2780.
IC50 values (μM) for A2780, A2780/cp70, and A2780/mcp1 and Resistance Factors (RF) (the fold difference in resistance from parental A2780) were determined based on the MTT assay described above for several compounds of the present invention (including, e.g., MMR201).
Background: Tetrazolium dyes change colour on reduction, which living cells bring about.

Experiment [2] relates to A1 (MLH1+ve, MMR proficient). Put plainly: Modified MTT assay, A1 line (A2780/cp70 + chromosome 3, MLH1 +ve). The experiment is classed as cell-based, human. On the procedure:
as §1
(§2) A1, E1, and A2 are derived by transfer of human chromosome 3 into A2780/cp70. MLH1 is located on chromosome 3.
(§3) IC50 values (μM) for A1 (MLH1+ve, MMR proficient) or E1 (MLH1+ve, MMR proficient) and A2 (MLH1−ve, MMR deficient) lines and Resistance Factors (RF) (the fold difference in resistance between the A2 line, MMR deficient, and the A1 line, MMR proficient) were determined based on the MTT assay described above for several compounds of the present invention (including, e.g., MMR201). Compounds showing increased activity against the MLH1 deficient A2 line compared to the MLH1 proficient A1 or E1 line have RF values less than 1.

The subject of experiment [3] is A2 (MLH1−ve, MMR deficient). The experiment can be described thus: Modified MTT assay, A2 line (A2780/cp70 + chromosome 3, MLH1 -ve). The format is cell-based, human. The following applies: for IC50: A2 line; for RF (Resistance Factor): fold difference in resistance between A2 (MMR deficient) and A1 (MMR proficient). On the procedure:
as §1, §2, §3

The test system of experiment [4] is HT29. Put plainly: Modified MTT assay, colon panel HT29. The experiment is classed as cell-based. On the procedure: (§4) Relative drug sensitivities (Resistance Factor) and IC50 values were determined by a modified MTT assay (see, e.g., Mosmann, 1983; Plumb et al., 1989), as described below: • (1) Trypsinise a sub-confluent monolayer culture and collect cells in growth medium containing serum. Centrifuge the suspension (200 g, 5 minutes) to pellet cells, re-suspend in growth medium, and count cells. Dilute cells to a density of 5×10^3 cells/mL allowing 60 mL of cell suspension for 3 microtitre plates. Transfer cell suspension to a 10 cm petri dish, and with a multichannel pipette add 200 μL to each well of the central 10 columns of a flat bottomed 96-well plate (80 wells per plate) starting with column 2 and ending with column 11. Add 200 μL of growth medium to the 8 wells in columns 1 and 12. […] Glycine buffer is added (25 μL per well) to all wells containing DMSO. • (8) Absorbance is recorded at 570 nm with the wells in column 1, which contained medium and MTT but no cells used as a blank. • (9) A graph is plotted of absorbance (y-axis) against drug concentration (x-axis). The mean absorbance reading from the wells in columns 2 and 11 is used as the control absorbance and the IC50 concentration is determined as the drug concentration required to reduce the absorbance to half that of the control. IC10 or IC90 values can be determined in the same manner. […]

Experiment [5] relates to T84. Put plainly: Modified MTT assay, colon panel T84. The experiment is classed as cell-based. On the procedure: as §4
In experiment [6] the test system is DLD1 (MSH6). Put plainly: Modified MTT assay, colon panel DLD1. The experiment is classed as cell-based. On the procedure:
as §4

The test system of experiment [7] is OVCAR3. Put plainly: Cancer cell line panel, OVCAR3 (ovary). The experiment is classed as cell-based. The protocol: as §4
For experiment [8], the system named is MDAMB231. The experiment can be described thus: Cancer cell line panel, MDAMB231 (breast). The format is cell-based. The protocol:
as §4

Experiment [9] has as its system LDAN. The experiment can be described thus: Cancer cell line panel, LDAN (NSCLC). The format is cell-based. On the procedure: as §4
In experiment [10] the test system is A549. Put plainly: Cancer cell line panel, A549 (NSCLC). The format is cell-based. On the procedure:
as §4

Experiment [11] has as its system WIL. Put plainly: Cancer cell line panel, WIL (NSCLC). The experiment is classed as cell-based. The protocol:
as §4

For experiment [12], the system named is CALU. The experiment can be described thus: Cancer cell line panel, CALU (NSCLC). The experiment is classed as cell-based. The protocol: as §4
The test system of experiment [13] is HS294. The experiment can be described thus: Cancer cell line panel, HS294 (melanoma). The format is cell-based. On the procedure:
as §4

Experiment [14] relates to C8161. The experiment can be described thus: Cancer cell line panel, C8161 (melanoma). The format is cell-based. The protocol: as §4
Experiment [15] relates to DU145. Put plainly: Cancer cell line panel, DU145 (prostate). The experiment is classed as cell-based. The protocol: as §4
Experiment [16] relates to PC3. The experiment can be described thus: Cancer cell line panel, PC3 (prostate). The experiment is classed as cell-based. On the procedure: as §4

Values joined by “and” are separate entries in the source; they are usually repeats but may differ in a detail not shown here. Equal entries are not always repeated. Where two headings read alike, the source gives them in different places.

Turning to `N.N.[Cl][Pt][Cl]` [Cisplatin, reference compound], the IC50 is 1740 nM and 1680 nM in experiment [1]; 715 ± 69 nM in experiment [2] (read-out: A1 or E1 MLH1 +ve MMR proficient IC50); 1900 ± 87 nM in [3]; 5670 ± 640 nM in experiment [4] (read-out: Cisplatin IC50, MMR proficient, p53 mut); 4230 ± 860 nM in experiment [5] (read-out: Cisplatin IC50, MMR proficient, p53 ?); 1670 ± 30 nM in experiment [6] (read-out: Cisplatin IC50, MMR deficient, p53 mut). Also, the IC50 in experiment [7] (read-out: Cisplatin) was found to be 239 ± 20 nM; in experiment [8] (read-out: Cisplatin), 11200 ± 700 nM; in experiment [9] (read-out: Cisplatin), 1230 ± 70 nM; in experiment [10] (read-out: Cisplatin) it was 1130 ± 40 nM; in [11] (read-out: Cisplatin) it was 3940 ± 220 nM; in experiment [12] (read-out: Cisplatin), 7250 ± 580 nM. Moreover, the IC50 is 1490 ± 80 nM in [13] (read-out: Cisplatin), 3460 ± 160 nM in experiment [14] (read-out: Cisplatin), 1680 ± 40 nM in experiment [15] (read-out: Cisplatin) and 2270 ± 270 nM in experiment [16] (read-out: Cisplatin). Besides, the “A2780/cp70 RF (Resistance Factor)” value in experiment [1] was 8.1 and 6.9. In addition, the “RF (Resistance Factor)” value in [3] worked out at 2.7.
Consider `CC[n+]1c(/C=C2\Sc3oc4ccccc4c3N2C)ccc2cc(C)ccc21.[I-]` [MMR201], for which the IC50 in [1] (Homo sapiens, A2780/CP70) is 17 ± 1 nM; in experiment [2] (Homo sapiens, A2780/CP70, read-out: A1 or E1 MLH1 +ve MMR proficient IC50), 121 ± 18 nM; in [3] (Homo sapiens, A2780/CP70), 23 ± 1 nM; in experiment [4] (Homo sapiens, HT-29, MMR proficient, p53 mut, read-out: MMR201 IC50) it was 118 ± 9.1 nM; in experiment [5] (Homo sapiens, MMR proficient, p53 ?, read-out: MMR201 IC50) it was 1470 ± 175 nM; in experiment [6] (Homo sapiens, DLD-1, MMR deficient, p53 mut, read-out: MMR201 IC50) it was 186 ± 8.3 nM. In addition, the IC50 in experiment [7] (Homo sapiens, OVCAR-3, read-out: MMR201) is 253 ± 22 nM; in experiment [8] (Homo sapiens, MDA-MB-231, read-out: MMR201), 235 ± 22.5 nM; in [9] (read-out: MMR201), 114.4 ± 0.07 nM; in [10] (Homo sapiens, read-out: MMR201) it was 119 ± 10.6 nM; in [11] (read-out: MMR201), 153 ± 13.7 nM; in [12] (read-out: MMR201) it was 380 ± 7.5 nM. Also, the IC50 in experiment [13] (read-out: MMR201) is 105 ± 5.1 nM; in experiment [14] (Homo sapiens, read-out: MMR201), 254.2 ± 0.4 nM; in [15] (Homo sapiens, DU-145, read-out: MMR201) it was 328 ± 7.8 nM; in [16] (Homo sapiens, PC-3, read-out: MMR201), 531 ± 50.3 nM. Besides, the “A2780/cp70 RF (Resistance Factor)” value in [1] is given as 0.29. In addition, in experiment [3], the “RF (Resistance Factor)” value is on record as 0.19.

For the origin of these results see patent US20090247579A1, “2-[3H-THIAZOL-2-YLIDINEMETHYL]PYRIDINES AND RELATED COMPOUNDS AND THEIR USE” (CANCER RESEARCH TECHNOLOGY LIMITED, priority 2006, published 2009).
